Results: the NIST ThermoML archive (doi:10.1016/j.tca.2005.10.007)
± gives the expanded uncertainty stated by the source.

Assay: xn = mol fraction of the nth substance listed
Conditions: 101 kPa, Liquid, Vibrating tube method

CC(O)CN (stereo not drawn) [1-amino-2-propanol] + O
mass density [kg/m3]
Conditions | 318.15 K | 323.15 K | 328.15 K | 333.15 K | 338.15 K | 343.15 K | 348.15 K | 353.15 K
x2 = 0.0438 | – | 938.15 ± 0.46 | 934 ± 0.46 | 929.82 ± 0.46 | 925.59 ± 0.45 | 921.33 ± 0.45 | 917.02 ± 0.45 | 912.66 ± 0.45
x2 = 0.0801 | – | 939.79 ± 0.44 | 935.65 ± 0.44 | 931.47 ± 0.44 | 927.26 ± 0.44 | 923 ± 0.44 | 918.7 ± 0.44 | 914.34 ± 0.43
x2 = 0.1269 | – | 942.24 ± 0.42 | 938.11 ± 0.42 | 933.95 ± 0.42 | 929.74 ± 0.42 | 925.48 ± 0.42 | 921.19 ± 0.42 | 916.84 ± 0.41
x2 = 0.1584 | – | 943.75 ± 0.41 | 939.62 ± 0.41 | 935.46 ± 0.41 | 931.25 ± 0.4 | 927 ± 0.4 | 922.71 ± 0.4 | 918.36 ± 0.4
x2 = 0.2003 | – | 945.98 ± 0.39 | 941.87 ± 0.39 | 937.7 ± 0.39 | 933.51 ± 0.39 | 929.26 ± 0.39 | 924.97 ± 0.38 | 920.63 ± 0.38
x2 = 0.2999 | – | 951.92 ± 0.35 | 947.82 ± 0.34 | 943.67 ± 0.34 | 939.48 ± 0.34 | 935.23 ± 0.34 | 930.93 ± 0.34 | 926.59 ± 0.34
x2 = 0.3498 | – | 955.13 ± 0.32 | 951.03 ± 0.32 | 946.88 ± 0.32 | 942.69 ± 0.32 | 938.45 ± 0.32 | 934.15 ± 0.32 | 929.81 ± 0.32
x2 = 0.3999 | – | 958.3 ± 0.3 | 954.21 ± 0.3 | 950.06 ± 0.3 | 945.87 ± 0.3 | 941.62 ± 0.3 | 937.32 ± 0.3 | 932.97 ± 0.3
x2 = 0.4499 | – | 961.75 ± 0.28 | 957.65 ± 0.28 | 953.5 ± 0.28 | 949.31 ± 0.28 | 945.06 ± 0.28 | 940.76 ± 0.28 | 936.4 ± 0.27
x2 = 0.4968 | – | 965.17 ± 0.26 | 961.07 ± 0.26 | 956.92 ± 0.26 | 952.72 ± 0.26 | 948.47 ± 0.26 | 944.16 ± 0.26 | 939.8 ± 0.25
x2 = 0.5122 | 970.43 ± 0.25 | 966.38 ± 0.25 | 962.28 ± 0.25 | 958.13 ± 0.25 | 953.93 ± 0.25 | 949.68 ± 0.25 | 945.37 ± 0.25 | 941.01 ± 0.25
x2 = 0.5501 | 973.11 ± 0.23 | 969.05 ± 0.23 | 964.95 ± 0.23 | 960.8 ± 0.23 | 956.6 ± 0.23 | 952.34 ± 0.23 | 948.03 ± 0.23 | 943.66 ± 0.23
x2 = 0.6001 | 977.04 ± 0.21 | 972.99 ± 0.21 | 968.89 ± 0.21 | 964.74 ± 0.21 | 960.54 ± 0.21 | 956.29 ± 0.21 | 951.98 ± 0.21 | 947.61 ± 0.21
x2 = 0.6501 | 980.76 ± 0.19 | 976.72 ± 0.19 | 972.63 ± 0.19 | 968.49 ± 0.19 | 964.3 ± 0.19 | 960.06 ± 0.19 | 955.76 ± 0.19 | 951.4 ± 0.19
x2 = 0.7 | 984.34 ± 0.17 | 980.34 ± 0.17 | 976.28 ± 0.17 | 972.17 ± 0.17 | 968.01 ± 0.17 | 963.8 ± 0.17 | 959.53 ± 0.17 | 955.2 ± 0.17
x2 = 0.7501 | 987.6 ± 0.14 | 983.67 ± 0.14 | 979.68 ± 0.14 | 975.64 ± 0.14 | 971.55 ± 0.14 | 967.4 ± 0.14 | 963.19 ± 0.14 | 958.92 ± 0.15
x2 = 0.8 | 990.02 ± 0.12 | 986.23 ± 0.12 | 982.39 ± 0.12 | 978.48 ± 0.12 | 974.51 ± 0.12 | 970.48 ± 0.12 | 966.38 ± 0.12 | 962.22 ± 0.12
x2 = 0.84 | 991.29 ± 0.1 | 987.71 ± 0.1 | 984.06 ± 0.1 | 980.33 ± 0.1 | 976.53 ± 0.1 | 972.66 ± 0.1 | 968.72 ± 0.11 | 964.71 ± 0.1
x2 = 0.88 | 991.5 ± 0.08 | 988.22 ± 0.08 | 984.85 ± 0.08 | 981.39 ± 0.08 | 977.84 ± 0.08 | 974.2 ± 0.09 | 970.47 ± 0.09 | 966.66 ± 0.09
x2 = 0.92 | 990.94 ± 0.07 | 988.05 ± 0.07 | 985.04 ± 0.07 | 981.92 ± 0.07 | 978.68 ± 0.07 | 975.33 ± 0.07 | 971.88 ± 0.07 | 968.33 ± 0.08
x2 = 0.96 | 990.01 ± 0.05 | 987.53 ± 0.05 | 984.91 ± 0.05 | 982.14 ± 0.06 | 979.24 ± 0.06 | 976.22 ± 0.06 | 973.07 ± 0.06 | 969.81 ± 0.07
